{"source": "patent EP4667483A1", "about": "“HUMAN TRANSFERRIN RECEPTOR-BINDING PEPTIDE” (JCR Pharmaceuticals Co., Ltd., priority 2023, dated 2024)", "key": {"[1]": {"molecular_target": "T1, human transferrin receptor (hTfR) (Homo sapiens, UniProt P02786)", "T1 sequence (P02786 whole entry)": "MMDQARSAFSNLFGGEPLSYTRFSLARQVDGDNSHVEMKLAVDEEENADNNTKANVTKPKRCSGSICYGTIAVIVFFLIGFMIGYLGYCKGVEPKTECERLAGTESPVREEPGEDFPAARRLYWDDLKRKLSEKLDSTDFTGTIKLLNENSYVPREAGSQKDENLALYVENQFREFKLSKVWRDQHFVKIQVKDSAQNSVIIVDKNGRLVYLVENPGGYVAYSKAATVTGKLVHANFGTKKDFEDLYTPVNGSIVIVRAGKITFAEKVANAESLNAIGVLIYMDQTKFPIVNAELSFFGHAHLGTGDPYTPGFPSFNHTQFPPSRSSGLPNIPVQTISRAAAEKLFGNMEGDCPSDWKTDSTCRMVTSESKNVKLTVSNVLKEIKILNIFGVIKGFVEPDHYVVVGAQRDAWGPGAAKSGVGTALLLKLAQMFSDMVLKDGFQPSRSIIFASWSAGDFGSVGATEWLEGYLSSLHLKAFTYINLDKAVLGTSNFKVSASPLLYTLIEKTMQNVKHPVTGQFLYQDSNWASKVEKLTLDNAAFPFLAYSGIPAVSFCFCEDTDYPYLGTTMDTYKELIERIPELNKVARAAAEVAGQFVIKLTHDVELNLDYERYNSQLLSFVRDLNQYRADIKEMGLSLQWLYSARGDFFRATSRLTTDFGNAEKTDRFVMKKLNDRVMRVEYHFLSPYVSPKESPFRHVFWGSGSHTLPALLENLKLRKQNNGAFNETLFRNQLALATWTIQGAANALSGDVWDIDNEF", "experiment": "SPR measurement under pH 7.4 conditions (Biacore T200, CM3 chip, hTfR captured by His Tag antibody)", "format": "binding", "settings": "read-out: hTfR SPR pH7.4 KD"}, "[2]": {"molecular_target": "T1, human transferrin receptor (hTfR)", "experiment": "SPR measurement under pH 6.0 conditions (Biacore T200, NTA chip, immobilized hTfR)", "format": "binding", "settings": "read-out: hTfR SPR pH6.0 KD"}}, "note": "Numbered stars: 1 amine (or outer) side, 2 acyl side, 3 side chain; on linkers, the order of the positions; unused ones are H or OH. Bridge positions count the residues as written; N and C are the ends. Square brackets hold non-standard residues; d marks the D form. Peptide text beside a SMILES is read from it. * marks the point of attachment. Ala(imidazo(1,2-a)pyr3yl) = N[C@@H](Cc1cnc2ccccn12)C(=O)O; Trp(1-CH2COOH) = N[C@@H](Cc1cn(CC(=O)O)c2ccccc12)C(=O)O; CH2CON(CH2CH2)2NCH2COOH = O=C(O)CN1CCN(C(=O)C*)CC1; NMePhe(4-COOH) = CN[C@@H](Cc1ccc(C(=O)O)cc1)C(=O)O; X1 = O=C([C@H](Cc1cccc(C(=O)[*:3])c1)N[*:1])[*:2]; Nle(6-morpholino) = N[C@@H](CCCCN1CCOCC1)C(=O)O; Phe(3-COOH) = N[C@@H](Cc1cccc(C(=O)O)c1)C(=O)O; NMePhe(3-Cl) = CN[C@@H](Cc1cccc(Cl)c1)C(=O)O; 3Pal(6-NH2) = Nc1ccc(C[C@H](N)C(=O)O)cn1; Lys(N3) = [N-]=[N+]=NCCCC[C@H](N)C(=O)O; NMeY = CN[C@@H](Cc1ccc(O)cc1)C(=O)O; Nva(3-Et) = CCC(CC)[C@H](N)C(=O)O; 4Pal = N[C@@H](Cc1ccncc1)C(=O)O; PEG4 = NCCOCCOCCOCCOCCC(=O)O; Carboxymethyl = O=C(O)C*", "data": [{"molecule": "CC[C@H](C)[C@@H]1NC(=O)[C@H](Cc2ccc(OCC(=O)N3CCN(CC(=O)O)CC3)cc2)NC(=O)[C@H](Cc2ccc(N)nc2)NC(=O)[C@H](CC(N)=O)NC(=O)[C@H](Cc2cn(CC(=O)O)c3ccccc23)NC(=O)[C@H](C(C)C)NC(=O)[C@H](Cc2cccc(Cl)c2)N(C)C(=O)[C@H](C(C)C)NC(=O)[C@H](C)NC(=O)CSC[C@@H](C(=O)NCCOCCOCCOCCOCCC(N)=O)NC(=O)[C@H](Cc2ccc(C(=O)O)cc2)N(C)C(=O)[C@H](Cc2cccc(C(=O)O)c2)NC(=O)[C@H](CCCCN2CCOCC2)NC(=O)[C@H](CCC(N)=O)NC(=O)[C@H]([C@@H](C)CC)NC1=O", "note": "[compound 51] ({CH2CO}-AV[NMePhe(3-Cl)]V[Trp(1-CH2COOH)]N[3Pal(6-NH2)]Y(CH2CON(CH2CH2)2NCH2COOH)IIQ[Nle(6-morpholino)][Phe(3-COOH)][NMePhe(4-COOH)]C[PEG4]-NH2; thioether N-15)", "values": [{"measurement": "Kd", "setting": "[1]; pH 7.4, single-cycle kinetics", "result": 1560, "unit": "nM"}, {"measurement": "Kd", "setting": "[2]; pH 6.0, single-cycle kinetics", "result": 692, "unit": "nM"}]}, {"molecule": "CCC(CC)[C@@H]1NC(=O)[C@H](Cc2ccc(OCC(=O)O)cc2)NC(=O)[C@H](Cc2ccc(O)cc2)NC(=O)[C@H](CC(N)=O)NC(=O)[C@H](Cc2c[nH]c3ccccc23)NC(=O)[C@H](C(C)C)NC(=O)[C@H](Cc2cccc(Cl)c2)N(C)C(=O)[C@H](C(C)C)NC(=O)[C@H](C)NC(=O)CSC[C@@H](C(=O)NCCOCCOCCOCCOCCC(N)=O)NC(=O)[C@H](Cc2ccc(C(=O)O)cc2)N(C)C(=O)[C@H](Cc2cccc(C(=O)NCCOCCOCCOCCOCCC(=O)O)c2)NC(=O)[C@H](CCCNC(=N)N)NC(=O)[C@H](CCC(N)=O)NC(=O)[C@H]([C@@H](C)CC)NC1=O", "note": "[compound 110] ({CH2CO}-AV[NMePhe(3-Cl)]VWNYY(Carboxymethyl)[Nva(3-Et)]IQR[X1](PEG4)[NMePhe(4-COOH)]C[PEG4]-NH2; thioether N-15)", "values": [{"measurement": "Kd", "setting": "[1]; SPR, pH 7.4, peptide with the linker named in the table", "result": 7.46, "unit": "nM"}, {"measurement": "Kd", "setting": "[2]; SPR, pH 6.0, peptide with the linker named in the table", "result": 12.8, "unit": "nM"}]}, {"molecule": "CCC(CC)[C@@H]1NC(=O)[C@H](Cc2ccc(OC)cc2)NC(=O)[C@H](Cc2ccc(N)nc2)NC(=O)[C@H](CC(N)=O)NC(=O)[C@H](Cc2cnc3ccccn23)NC(=O)[C@H](C(C)C)NC(=O)[C@H](Cc2cccc(Cl)c2)N(C)C(=O)[C@H](C(C)C)NC(=O)[C@H](C)NC(=O)CSC[C@@H](C(=O)NCC(=O)N[C@@H](CCCCN=[N+]=[N-])C(N)=O)NC(=O)[C@H](Cc2ccc(C(=O)O)cc2)N(C)C(=O)[C@H](Cc2ccncc2)NC(=O)[C@H](CCCNC(=N)N)NC(=O)[C@H](CCCNC(=N)N)NC(=O)[C@H]([C@@H](C)CC)NC1=O", "note": "[compound 181] ({CH2CO}-AV[NMePhe(3-Cl)]V[Ala(imidazo(1,2-a)pyr3yl)]N[3Pal(6-NH2)]Y(Me)[Nva(3-Et)]IRR[4Pal][NMePhe(4-COOH)]CG[Lys(N3)]-NH2; thioether N-15)", "values": [{"measurement": "Kd", "setting": "[1]; pH 7.4, single-cycle kinetics", "result": 24.5, "unit": "nM"}, {"measurement": "Kd", "setting": "[2]; pH 6.0, single-cycle kinetics", "result": 124, "unit": "nM"}]}, {"molecule": "CC[C@H](C)[C@@H]1NC(=O)[C@H](Cc2ccc(OC)cc2)NC(=O)[C@H](Cc2ccc(N)nc2)NC(=O)[C@H](CC(N)=O)NC(=O)[C@H](Cc2cnc3ccccn23)NC(=O)[C@H](C(C)C)NC(=O)[C@H](Cc2cccc(Cl)c2)N(C)C(=O)[C@H](C(C)C)NC(=O)[C@H](C)NC(=O)CSC[C@@H](C(=O)NCC(=O)N[C@@H](CCCCN=[N+]=[N-])C(N)=O)NC(=O)[C@H](Cc2ccc(O)cc2)N(C)C(=O)[C@H](Cc2ccncc2)NC(=O)[C@H](CCCNC(=N)N)NC(=O)[C@H](CCCNC(=N)N)NC(=O)[C@H]([C@@H](C)CC)NC1=O", "note": "[compound 197] ({CH2CO}-AV[NMePhe(3-Cl)]V[Ala(imidazo(1,2-a)pyr3yl)]N[3Pal(6-NH2)]Y(Me)IIRR[4Pal][NMeY]CG[Lys(N3)]-NH2; thioether N-15)", "values": [{"measurement": "Kd", "setting": "[1]; SPR, pH 7.4, Table 1-3-2-2", "result": 5.09, "unit": "nM"}, {"measurement": "Kd", "setting": "[2]; SPR, pH 6.0, Table 1-3-2-2", "result": 43.9, "unit": "nM"}]}]}
